{
  "source": "patent US8367716B2",
  "about": "(priority 2003, dated 2013)",
  "tested_on": "S. aureus",
  "experiment": "Biofilm formation on polystyrene microtitre plates (crystal violet, O.D.570)",
  "type": "cell-based, Staphylococcus aureus",
  "procedure": "Effect of c-di-GMP on S. aureus biofilm formation. S. aureus strains were subcultured from glycerol stocks onto blood agar plates and incubated at 37° C. for 18 h. A single colony was inoculated into 5 ml TSB broth with a sterilized loop and incubated at 37° C. for 18 h with shaking at 250 rpm and until the O.D.660 reached 3.0 as measured spectrophotometrically using a spectrophotometer (SpectraMAX 250, Molecular Devices). Following incubation, the culture was diluted 1:250 with fresh TSB and a 200 μl of the diluted culture was transferred into wells of a flat-bottom polystyrene microtitre plate (Evergreen Scientific). […] In these biofilm experiments, similar volumes of 0.9% NaCl was added to a set of different wells representing the “untreated” control samples. The microtitre plates were then incubated statically at 37° C. for 24 h or 48 h. Following incubation, the supernatant was carefully discarded and the wells washed twice with 260 μl PBS. The plate was then kept for drying on a paper towel for 30 min after which 260 μl 0.1% crystal violet was added to each well and the plates incubated at room temperature for 30 min. The crystal violet was discarded and plate washed gently with water, the wells allowed to dry for 30 min then 260 μl DMSO was added to each well and gently agitated for 1 h and the O.D.570 measured by using a spectrophotometer (SpectraMAX 250, Molecular Devices). The results of these biofilm assays were based on data obtained from at least three independent colonies tested in duplicate.",
  "data": [
    {"compound": "Nc1nc2c(ncn2C2OC3COP(=O)(O)OC4C(COP(=O)(O)OC3C2O)OC(n2cnc3c(=O)[nH]c(N)nc32)C4O)c(=O)[nH]1", "note": "(centres unmarked) [c-di-GMP, 3′,5′-cyclic diguanylic acid]", "values": [
      {"measurement": "reduction of biofilm formation", "setting": "DK825, 20 μM, 24 h", "result": "~50", "unit": "%"},
      {"measurement": "reduction of biofilm formation", "setting": "DK825, 200 μM, 24 h", "result": "~65", "unit": "%"},
      {"measurement": "reduction of biofilm formation", "setting": "DK825, 400 μM, 24 h", "result": "~85", "unit": "%"},
      {"measurement": "reduction of biofilm formation", "setting": "bovine strains V329, M556, V299, V315", "result": "50-70%"},
      {"measurement": "reduction of cell-to-surface interactions and biofilm formation", "setting": "human and bovine isolates vs untreated controls", "result": "> 50", "unit": "%"}
    ]}
  ]
}
